Measured values from article PMC5988656, “Phase I studies of AZD1208, a proviral integration Moloney virus kinase inhibitor in solid and haematological cancers” (British Journal of Cancer, 2018).
Where “and” joins values, the source holds several entries; their conditions need not be identical. Identical values can stand only once.

Experiment: AML dose-escalation study: pharmacokinetics (plasma, urine)
Type: in vivo, human
Conditions: for Gmean plasma concentration of AZD1208 (± SD): Cycle 1, Day 14
Experimental: The schedules for collection of blood and urine samples for PK analyses in each cohort in both studies are described in Supplementary Table 1. When necessary for clinical response assessment in the AML study, a bone marrow sample for PK analysis was collected at Cycle 1, Day 28.
The concentration of AZD1208 in plasma and urine was determined by Covance, on behalf of Clinical Bioanalysis Alliance at AstraZeneca R&D, using a bioanalytical method. A volume of 0.05 ml of K2EDTA human plasma sample was extracted by liquid–liquid extraction using 0.7 ml of methyl tert-butyl ether. Approximately 100 µl of the supernatant was transferred, evaporated to dryness and reconstituted with 350 µl of 1:1 methanol:water, and a 5 µl injection was made to the high-performance liquid chromatography (HPLC) column. HPLC separations were performed on a Phenomenex LUNA C18 (50 × 2 mm, 5 µm) column using a mobile phase of 0.1% formic acid in water (A) and 0.1% formic acid in acetonitrile (B) at a flow rate of 0.6 ml/min and a column temperature of 40 °C. AZD1208-D5 was used as the internal standard. Detection was performed in a Sciex API4000 mass spectrometer, in a positive electrospray ionisation mode, using multiple reaction monitoring detection (AZD1208: 380.0–>248.1; AZD1208-D5: 385.0–>253.1).

Q: For `N[C@@H]1CCCN(c2c(/C=C3\SC(=O)NC3=O)cccc2-c2ccccc2)C1` [AZD1208], which “Gmean plasma concentration of AZD1208 (± SD)” value (0.5 h post-dose, 120 mg, n=3) is on record?
A: 1758.9 (970.3, 3188.5) ng ml

Q: What about the “Gmean plasma concentration of AZD1208 (± SD)” value (0.5 h post-dose, 240 mg, n=6) of the same compound?
A: 2365.9 (976.3, 6694.0) ng ml

Q: What about the “Gmean plasma concentration of AZD1208 (± SD)” value (0.5 h post-dose, 480 mg, n=6) of the same compound?
A: 2887.4 (322.6, 25 841.7) ng ml

Q: And the “Gmean plasma concentration of AZD1208 (± SD)” value (0.5 h post-dose, 700 mg, n=7)?
A: 2029.2 (863.1, 4770.5) ng ml

Q: What about the “Gmean plasma concentration of AZD1208 (± SD)” value (1 h post-dose, 120 mg, n=3) of the same compound?
A: 2050.2 (1514.6, 2775.2) ng ml

Q: What about the “Gmean plasma concentration of AZD1208 (± SD)” value (1 h post-dose, 480 mg, n=6) of the same compound?
A: 4956.2 (1164.7, 21 090.8) ng ml

Q: What about the “Gmean plasma concentration of AZD1208 (± SD)” value (1 h post-dose, 700 mg, n=7) of the same compound?
A: 2013.8 (1004.8, 4035.8) ng ml

Q: What about the “Gmean plasma concentration of AZD1208 (± SD)” value (1 h post-dose, 900 mg, n=9) of the same compound?
A: 1952.5 (1166.1, 3269.1) ng ml

Q: What about the “Gmean plasma concentration of AZD1208 (± SD)” value (1.5 h post-dose, 120 mg, n=3) of the same compound?
A: 2375.1 (1849.1, 3050.7) ng ml

Q: And the “Gmean plasma concentration of AZD1208 (± SD)” value (1.5 h post-dose, 240 mg, n=6)?
A: 5142.8 (4058.6, 6516.6) ng ml

Q: What about the “Gmean plasma concentration of AZD1208 (± SD)” value (1.5 h post-dose, 480 mg, n=6) of the same compound?
A: 5384.2 (2123.1, 13 654.8) ng ml

Q: What about the “Gmean plasma concentration of AZD1208 (± SD)” value (1.5 h post-dose, 700 mg, n=7) of the same compound?
A: 3963.7 (2236.9, 7023.5) ng ml

Q: And the “Gmean plasma concentration of AZD1208 (± SD)” value (1.5 h post-dose, 900 mg, n=9)?
A: 2747.1 (1719.7, 4388.3) ng ml

Q: What about the “Gmean plasma concentration of AZD1208 (± SD)” value (2 h post-dose, 120 mg, n=3) of the same compound?
A: 2216.3 (1388.5, 3537.7) ng ml

Q: And the “Gmean plasma concentration of AZD1208 (± SD)” value (2 h post-dose, 240 mg, n=6)?
A: 6153.8 (5277.1, 7175.8) ng ml

Q: What about the “Gmean plasma concentration of AZD1208 (± SD)” value (2 h post-dose, 480 mg, n=6) of the same compound?
A: 5818.8 (2320.7, 14 589.5) ng ml

Q: And the “Gmean plasma concentration of AZD1208 (± SD)” value (2 h post-dose, 700 mg, n=7)?
A: 4388.1 (2945.6, 6536.9) ng ml

Q: And the “Gmean plasma concentration of AZD1208 (± SD)” value (2 h post-dose, 900 mg, n=9)?
A: 3107.5 (1803.0, 5356.1) ng ml

Q: And the “Gmean plasma concentration of AZD1208 (± SD)” value (3 h post-dose, 120 mg, n=3)?
A: 2052.0 (1181.0, 3565.2) ng ml

Q: And the “Gmean plasma concentration of AZD1208 (± SD)” value (3 h post-dose, 240 mg, n=6)?
A: 3687.8 (1657.8, 8203.5) ng ml

Q: What about the “Gmean plasma concentration of AZD1208 (± SD)” value (3 h post-dose, 480 mg, n=6) of the same compound?
A: 5515.9 (1885.1, 16 139.7) ng ml

Q: And the “Gmean plasma concentration of AZD1208 (± SD)” value (3 h post-dose, 700 mg, n=7)?
A: 5521.1 (2560.5, 11 905.2) ng ml

Q: And the “Gmean plasma concentration of AZD1208 (± SD)” value (3 h post-dose, 900 mg, n=9)?
A: 3179.0 (1505.2, 6714.4) ng ml

Q: And the “Gmean plasma concentration of AZD1208 (± SD)” value (6 h post-dose, 120 mg, n=3)?
A: 1761.5 (1019.2, 3044.5) ng ml

Q: And the “Gmean plasma concentration of AZD1208 (± SD)” value (6 h post-dose, 240 mg, n=6)?
A: 3196.3 (1504.2, 6791.5) ng ml

Q: And the “Gmean plasma concentration of AZD1208 (± SD)” value (6 h post-dose, 480 mg, n=6)?
A: 5420.2 (1806.5, 16 262.9) ng ml

Q: What about the “Gmean plasma concentration of AZD1208 (± SD)” value (6 h post-dose, 700 mg, n=7) of the same compound?
A: 4452.1 (2126.6, 9320.8) ng ml

Q: What about the “Gmean plasma concentration of AZD1208 (± SD)” value (6 h post-dose, 900 mg, n=9) of the same compound?
A: 2320.5 (896.7, 6004.8) ng ml

Q: And the “Gmean plasma concentration of AZD1208 (± SD)” value (8 h post-dose, 120 mg, n=3)?
A: 1700.4 (974.4, 2967.5) ng ml

Q: What about the “Gmean plasma concentration of AZD1208 (± SD)” value (8 h post-dose, 240 mg, n=6) of the same compound?
A: 2735.5 (1203.4, 6218.4) ng ml

Q: What about the “Gmean plasma concentration of AZD1208 (± SD)” value (8 h post-dose, 480 mg, n=6) of the same compound?
A: 5248.1 (1804.2, 15 265.9) ng ml

Q: And the “Gmean plasma concentration of AZD1208 (± SD)” value (8 h post-dose, 700 mg, n=7)?
A: 4064.8 (2043.6, 8085.1) ng ml

Q: And the “Gmean plasma concentration of AZD1208 (± SD)” value (8 h post-dose, 900 mg, n=9)?
A: 2608.4 (2223.6, 3059.7) ng ml

Q: And the “Gmean plasma concentration of AZD1208 (± SD)” value (24 h post-dose, 120 mg, n=3)?
A: 1248.3 (485.6, 3208.8) ng ml

Q: What about the “Gmean plasma concentration of AZD1208 (± SD)” value (24 h post-dose, 240 mg, n=6) of the same compound?
A: 1818.9 (580.7, 5697.5) ng ml

Q: And the “Gmean plasma concentration of AZD1208 (± SD)” value (24 h post-dose, 480 mg, n=6)?
A: 3154.5 (406.4, 24 485.6) ng ml

Q: What about the “Gmean plasma concentration of AZD1208 (± SD)” value (24 h post-dose, 700 mg, n=7) of the same compound?
A: 2302.0 (643.6, 8233.0) ng ml

Q: And the “Gmean plasma concentration of AZD1208 (± SD)” value (24 h post-dose, 900 mg, n=9)?
A: 593.0 (174.0, 2021.0) ng ml

Q: What about the “Gmean plasma concentration of AZD1208 (± SD)” value (pre-dose, 120 mg, n=3) of the same compound?
A: 1163.1 (335.5, 4032.0) ng ml

Q: What about the “Gmean plasma concentration of AZD1208 (± SD)” value (pre-dose, 240 mg, n=6) of the same compound?
A: 2106.9 (693.2, 6845.2) ng ml

Q: What about the “Gmean plasma concentration of AZD1208 (± SD)” value (pre-dose, 480 mg, n=6) of the same compound?
A: 2302.9 (541.6, 9792.3) ng ml

Q: What about the “Gmean plasma concentration of AZD1208 (± SD)” value (pre-dose, 700 mg, n=7) of the same compound?
A: 2513.6 (1057.2, 5976.4) ng ml

Q: What about the “Gmean plasma concentration of AZD1208 (± SD)” value (pre-dose, 900 mg, n=9) of the same compound?
A: 463.1 (444.2, 482.7) ng ml

Q: What about the “Patients with marked accumulation (>3-fold)” value (across the doses, 7/16 patients) of the same compound?
A: 44%

Q: And the “Median time to maximum plasma concentration (Tmax)” value (after a single dose)?
A: ~ 3 h

Q: What about the “Differences in AZD1208 concentrations between individuals within the same cohort” value (after multiple doses) of the same compound?
A: up to 10 fold

Q: What about the “Dose proportionality of Cmax and AUC0–24” value (following multiple doses) of the same compound?
A: less than dose proportional

Q: What about the Accumulation ratio (individual patients at 480 mg) of the same compound?
A: 3.6 and 0.36

Q: What about the “Administered dose eliminated unchanged in urine” value (within 24 h, all cohorts) of the same compound?
A: < 1%
